# Results reported in patent US9738634B2, “Heterocyclic amide compound and herbicide” (SYNGENTA PARTICIPATIONS AG, priority 2013, dated 2017).
# Legend:
# Format in all cases: in vivo
# black-grass [1] = assay: Test Example 3: weedkilling efficacy through soil treatment; H: black-grass
# Method in brief: (§1)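 Crop and weed responses were judged three weeks after a uniform surface spray of the water-diluted emulsion at the given g/ha rate. Seeds sat beneath about 1.5 cm of sterilized diluvial soil, and boxes stood in a greenhouse at 25 to 30° C.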
# Italian ryegrass [2] = assay: Test Example 3: weedkilling efficacy through soil treatment; I: Italian ryegrass
# Method in brief: as §1
# common wind-grass [3] = assay: Test Example 3: weedkilling efficacy through soil treatment; J: common wind-grass
# Method in brief: as §1
# wheat [4] = assay: Test Example 3: soil treatment, effect on crop; e: wheat
# Method in brief: as §1
# rapeseed [5] = assay: Test Example 3: soil treatment, effect on crop; g: rapeseed; conditions: treatment dosage 80 g/ha
# Method in brief: as §1
# black-grass [6] = assay: Test Example 4: weedkilling efficacy by foliar treatment; H: black-grass
# Method in brief: (§2)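 Seeds are spot-sown into sterilized diluvial soil and covered with about 1.5 cm of soil. After 14 days' greenhouse growth at 25 to 30° C, plants are sprayed on stems and leaves with diluted emulsion at the stated g/ha rate, then scored at 3 weeks.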
# Italian ryegrass [7] = assay: Test Example 4: weedkilling efficacy by foliar treatment; I: Italian ryegrass
# Method in brief: as §2
# common wind-grass [8] = assay: Test Example 4: weedkilling efficacy by foliar treatment; J: common wind-grass
# Experimental: (§3) Testing of Weedkilling Efficacy by Foliar Treatment
# (§4) Sterilized diluvial soil was introduced into 21 cm long, 13 cm wide, 7 cm deep plastic boxes, and seeds of crabgrass, green foxtail, barnyard grass, wild oat, black-grass, Italian ryegrass, common wind-grass, Indian mallow, redroot pigweed, fig-leafed goosefoot, chickweed, catchweed, birds-eye speedwell, corn, soybean, rice, wheat, beet and rapeseed were each spot-sown, and covered with about 1.5 cm of soil, then the plants were grown in a greenhouse at 25 to 30° C.
# (§5) After they had grown for 14 days, emulsions of compounds of the present invention prepared according to compounding example 2 were diluted with water to give the specified dosages, and applied uniformly onto the stem and leaf parts with a small sprayer. 3 weeks after the pesticide treatment the effect on each type of plant was investigated on the basis of the assessment criteria of test example 1.
# (§6) A: barnyard grass, B: bulrush, C: oval-leafed pondweed, D: crabgrass, E: green foxtail, F: barnyard grass, G: wild oat, H: black-grass, I: Italian ryegrass, J: common wind-grass, K: Indian mallow, L: redroot pigweed, M: fig-leafed goosefoot, N: chickweed, O: catchweed, p: birds-eye speedwell, a: transplanted rice, b: directly sown rice, c: corn, d: soybean, e: wheat, f: beet, g: rapeseed
# (§7) Further, pesticide dosage (g/ha) indicates the concentration regulated such that treatment was with only the stated number of grams (g), when calculated per hectare (ha).
# wheat [9] = assay: Test Example 4: foliar treatment, effect on crop; e: wheat
# Method in brief: as §2
# rapeseed [10] = assay: Test Example 4: foliar treatment, effect on crop; g: rapeseed; conditions: treatment dosage 80 g/ha
# Experimental: as §3, §4, §5, §6, §7
# barnyard grass [11] = assay: Test Example 1: weedkilling efficacy, preemergent weed treatment in the submerged state; A: barnyard grass; conditions: treatment dosage 320 g/ha
# Method in brief: (§8)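 Pots of alluvial soil flooded 4 cm deep, sown with barnyard grass, bulrush and oval-leafed pondweed and transplanted with 2.5-leaf rice. Emulsified compound applied to the water surface on sowing day at stated g/ha; greenhouse 25–30 °C, effects assessed 3 weeks after treatment.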
# bulrush [12] = assay: Test Example 1: weedkilling efficacy, preemergent weed treatment in the submerged state; B: bulrush; conditions: treatment dosage 320 g/ha
# Method in brief: as §8
# oval-leafed pondweed [13] = assay: Test Example 1: weedkilling efficacy, preemergent weed treatment in the submerged state; C: oval-leafed pondweed; conditions: treatment dosage 320 g/ha
# Method in brief: as §8
# transplanted rice = assay: Test Example 1: preemergent weed treatment in the submerged state, effect on crop; a: transplanted rice; conditions: treatment dosage 320 g/ha
# Method in brief: as §8
# barnyard grass [14] = assay: Test Example 2: weedkilling efficacy, growth period weed treatment in the submerged state; A: barnyard grass; conditions: treatment dosage 320 g/ha
# Method in brief: (§9)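 Barnyard grass, bulrush and oval-leafed pondweed sown in alluvial soil under 4 cm flooding, greenhouse 25 to 30° C. At 1-2 leaf stage, water-diluted emulsion applied to the water surface at stated g/ha dosages; effects scored 3 weeks later.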
# bulrush [15] = assay: Test Example 2: weedkilling efficacy, growth period weed treatment in the submerged state; B: bulrush; conditions: treatment dosage 320 g/ha
# Method in brief: as §9
# oval-leafed pondweed [16] = assay: Test Example 2: weedkilling efficacy, growth period weed treatment in the submerged state; C: oval-leafed pondweed; conditions: treatment dosage 320 g/ha
# Method in brief: as §9
# wild oat [17] = assay: Test Example 3: weedkilling efficacy through soil treatment; G: wild oat; conditions: treatment dosage 320 g/ha
# Method in brief: as §1
# Indian mallow [18] = assay: Test Example 3: weedkilling efficacy through soil treatment; K: Indian mallow; conditions: treatment dosage 320 g/ha
# Method in brief: as §1
# redroot pigweed [19] = assay: Test Example 3: weedkilling efficacy through soil treatment; L: redroot pigweed; conditions: treatment dosage 320 g/ha
# Method in brief: as §1
# fig-leafed goosefoot [20] = assay: Test Example 3: weedkilling efficacy through soil treatment; M: fig-leafed goosefoot; conditions: treatment dosage 320 g/ha
# Method in brief: as §1
# chickweed [21] = assay: Test Example 3: weedkilling efficacy through soil treatment; N: chickweed; conditions: treatment dosage 320 g/ha
# Method in brief: as §1
# catchweed [22] = assay: Test Example 3: weedkilling efficacy through soil treatment; O: catchweed; conditions: treatment dosage 320 g/ha
# Method in brief: as §1
# corn [23] = assay: Test Example 3: soil treatment, effect on crop; c: corn; conditions: treatment dosage 320 g/ha
# Method in brief: as §1
# soybean [24] = assay: Test Example 3: soil treatment, effect on crop; d: soybean; conditions: treatment dosage 320 g/ha
# Method in brief: as §1
# beet [25] = assay: Test Example 3: soil treatment, effect on crop; f: beet; conditions: treatment dosage 320 g/ha
# Method in brief: as §1
# wild oat [26] = assay: Test Example 4: weedkilling efficacy by foliar treatment; G: wild oat; conditions: treatment dosage 320 g/ha
# Method in brief: as §2
# Indian mallow [27] = assay: Test Example 4: weedkilling efficacy by foliar treatment; K: Indian mallow; conditions: treatment dosage 320 g/ha
# Method in brief: as §2
# redroot pigweed [28] = assay: Test Example 4: weedkilling efficacy by foliar treatment; L: redroot pigweed; conditions: treatment dosage 320 g/ha
# Method in brief: as §2
# fig-leafed goosefoot [29] = assay: Test Example 4: weedkilling efficacy by foliar treatment; M: fig-leafed goosefoot; conditions: treatment dosage 320 g/ha
# Method in brief: as §2
# chickweed [30] = assay: Test Example 4: weedkilling efficacy by foliar treatment; N: chickweed; conditions: treatment dosage 320 g/ha
# Method in brief: as §2
# catchweed [31] = assay: Test Example 4: weedkilling efficacy by foliar treatment; O: catchweed; conditions: treatment dosage 320 g/ha
# Method in brief: as §2
# birds-eye speedwell = assay: Test Example 4: weedkilling efficacy by foliar treatment; p: birds-eye speedwell; conditions: treatment dosage 320 g/ha
# Method in brief: as §2
# corn [32] = assay: Test Example 4: foliar treatment, effect on crop; c: corn; conditions: treatment dosage 320 g/ha
# Method in brief: as §2
# soybean [33] = assay: Test Example 4: foliar treatment, effect on crop; d: soybean; conditions: treatment dosage 320 g/ha
# Method in brief: as §2
# beet [34] = assay: Test Example 4: foliar treatment, effect on crop; f: beet; conditions: treatment dosage 320 g/ha
# Method in brief: as §2
smiles,measurement,setting,value
CC1=C(c2ccccc2)C(=O)N(C(C)(C)C(=O)Nc2cc(Cl)ccn2)CO1 [B-2-28],H (black-grass) weedkilling efficacy grade,black-grass [1]; treatment dosage 80 g/ha,"5 (weed kill ratio 90% or more, (practically complete withering))"
same,I (Italian ryegrass) weedkilling efficacy grade,Italian ryegrass [2]; treatment dosage 80 g/ha,"5 (weed kill ratio 90% or more, (practically complete withering))"
same,J (common wind-grass) weedkilling efficacy grade,common wind-grass [3]; treatment dosage 80 g/ha,"5 (weed kill ratio 90% or more, (practically complete withering))"
same,e (wheat) effect on crop grade,wheat [4]; treatment dosage 80 g/ha,0 (weed kill ratio 5% or less (practically no effect))
same,g (rapeseed) effect on crop grade,rapeseed [5],0 (weed kill ratio 5% or less (practically no effect))
same,H (black-grass) weedkilling efficacy grade,black-grass [6]; treatment dosage 80 g/ha,"5 (weed kill ratio 90% or more, (practically complete withering))"
same,I (Italian ryegrass) weedkilling efficacy grade,Italian ryegrass [7]; treatment dosage 80 g/ha,"5 (weed kill ratio 90% or more, (practically complete withering))"
same,J (common wind-grass) weedkilling efficacy grade,common wind-grass [8]; treatment dosage 80 g/ha,"5 (weed kill ratio 90% or more, (practically complete withering))"
same,e (wheat) effect on crop grade,wheat [9]; treatment dosage 80 g/ha,0 (weed kill ratio 5% or less (practically no effect))
same,g (rapeseed) effect on crop grade,rapeseed [10],"3 (weed kill ratio 40% or more, less than 70%)"
CC1=C(c2ccccc2)C(=O)N(C(C)(C)C(=O)Nc2cc(C)ccn2)CO1 [B-2-52],H (black-grass) weedkilling efficacy grade,black-grass [1]; treatment dosage 80 g/ha,"4 (weed kill ratio 70% or more, less than 90%)"
same,I (Italian ryegrass) weedkilling efficacy grade,Italian ryegrass [2]; treatment dosage 80 g/ha,"5 (weed kill ratio 90% or more, (practically complete withering))"
same,J (common wind-grass) weedkilling efficacy grade,common wind-grass [3]; treatment dosage 80 g/ha,"5 (weed kill ratio 90% or more, (practically complete withering))"
same,e (wheat) effect on crop grade,wheat [4]; treatment dosage 80 g/ha,0 (weed kill ratio 5% or less (practically no effect))
same,g (rapeseed) effect on crop grade,rapeseed [5],"1 (weed kill ratio 5% or more, less than 20%)"
same,H (black-grass) weedkilling efficacy grade,black-grass [6]; treatment dosage 80 g/ha,"2 (weed kill ratio 20% or more, less than 40%)"
same,I (Italian ryegrass) weedkilling efficacy grade,Italian ryegrass [7]; treatment dosage 80 g/ha,"3 (weed kill ratio 40% or more, less than 70%)"
same,J (common wind-grass) weedkilling efficacy grade,common wind-grass [8]; treatment dosage 80 g/ha,"5 (weed kill ratio 90% or more, (practically complete withering))"
same,e (wheat) effect on crop grade,wheat [9]; treatment dosage 80 g/ha,0 (weed kill ratio 5% or less (practically no effect))
same,g (rapeseed) effect on crop grade,rapeseed [10],0 (weed kill ratio 5% or less (practically no effect))
COC(=O)c1ccnc(NC(=O)C(C)(C)N2COC(C)=C(c3ccccc3)C2=O)c1 [B-2-61],A (barnyard grass) weedkilling efficacy grade,barnyard grass [11],0 (weed kill ratio 5% or less (practically no effect))
same,B (bulrush) weedkilling efficacy grade,bulrush [12],0 (weed kill ratio 5% or less (practically no effect))
same,C (oval-leafed pondweed) weedkilling efficacy grade,oval-leafed pondweed [13],"4 (weed kill ratio 70% or more, less than 90%)"
same,a (transplanted rice) effect on crop grade,transplanted rice,0 (weed kill ratio 5% or less (practically no effect))
same,A (barnyard grass) weedkilling efficacy grade,barnyard grass [14],0 (weed kill ratio 5% or less (practically no effect))
same,B (bulrush) weedkilling efficacy grade,bulrush [15],"2 (weed kill ratio 20% or more, less than 40%)"
same,C (oval-leafed pondweed) weedkilling efficacy grade,oval-leafed pondweed [16],"2 (weed kill ratio 20% or more, less than 40%)"
same,G (wild oat) weedkilling efficacy grade,wild oat [17],0 (weed kill ratio 5% or less (practically no effect))
same,H (black-grass) weedkilling efficacy grade,black-grass [1]; treatment dosage 320 g/ha,"4 (weed kill ratio 70% or more, less than 90%)"
same,I (Italian ryegrass) weedkilling efficacy grade,Italian ryegrass [2]; treatment dosage 320 g/ha,"2 (weed kill ratio 20% or more, less than 40%)"
same,J (common wind-grass) weedkilling efficacy grade,common wind-grass [3]; treatment dosage 320 g/ha,"5 (weed kill ratio 90% or more, (practically complete withering))"
same,K (Indian mallow) weedkilling efficacy grade,Indian mallow [18],0 (weed kill ratio 5% or less (practically no effect))
same,L (redroot pigweed) weedkilling efficacy grade,redroot pigweed [19],0 (weed kill ratio 5% or less (practically no effect))
same,M (fig-leafed goosefoot) weedkilling efficacy grade,fig-leafed goosefoot [20],0 (weed kill ratio 5% or less (practically no effect))
same,N (chickweed) weedkilling efficacy grade,chickweed [21],0 (weed kill ratio 5% or less (practically no effect))
same,O (catchweed) weedkilling efficacy grade,catchweed [22],0 (weed kill ratio 5% or less (practically no effect))
same,c (corn) effect on crop grade,corn [23],0 (weed kill ratio 5% or less (practically no effect))
same,d (soybean) effect on crop grade,soybean [24],0 (weed kill ratio 5% or less (practically no effect))
same,e (wheat) effect on crop grade,wheat [4]; treatment dosage 320 g/ha,0 (weed kill ratio 5% or less (practically no effect))
same,f (beet) effect on crop grade,beet [25],0 (weed kill ratio 5% or less (practically no effect))
same,G (wild oat) weedkilling efficacy grade,wild oat [26],0 (weed kill ratio 5% or less (practically no effect))
same,H (black-grass) weedkilling efficacy grade,black-grass [6]; treatment dosage 320 g/ha,0 (weed kill ratio 5% or less (practically no effect))
same,I (Italian ryegrass) weedkilling efficacy grade,Italian ryegrass [7]; treatment dosage 320 g/ha,0 (weed kill ratio 5% or less (practically no effect))
same,J (common wind-grass) weedkilling efficacy grade,common wind-grass [8]; treatment dosage 320 g/ha,"1 (weed kill ratio 5% or more, less than 20%)"
same,K (Indian mallow) weedkilling efficacy grade,Indian mallow [27],0 (weed kill ratio 5% or less (practically no effect))
same,L (redroot pigweed) weedkilling efficacy grade,redroot pigweed [28],0 (weed kill ratio 5% or less (practically no effect))
same,M (fig-leafed goosefoot) weedkilling efficacy grade,fig-leafed goosefoot [29],0 (weed kill ratio 5% or less (practically no effect))
same,N (chickweed) weedkilling efficacy grade,chickweed [30],0 (weed kill ratio 5% or less (practically no effect))
same,O (catchweed) weedkilling efficacy grade,catchweed [31],0 (weed kill ratio 5% or less (practically no effect))
same,P (birds-eye speedwell) weedkilling efficacy grade,birds-eye speedwell,"2 (weed kill ratio 20% or more, less than 40%)"
same,c (corn) effect on crop grade,corn [32],0 (weed kill ratio 5% or less (practically no effect))
same,d (soybean) effect on crop grade,soybean [33],0 (weed kill ratio 5% or less (practically no effect))
same,e (wheat) effect on crop grade,wheat [9]; treatment dosage 320 g/ha,0 (weed kill ratio 5% or less (practically no effect))
same,f (beet) effect on crop grade,beet [34],"2 (weed kill ratio 20% or more, less than 40%)"
